Laboratory results published in patent US20230272012A1, “PEPTIDES AND METHODS OF USE” (REALTA LIFE SCIENCES, INC., priority 2020, published 2023).
Entries after “also recorded” stand apart in the source; their conditions may differ. Peptide text beside a SMILES is read from it.

Key:
[1] = system: human neutrophils; experiment: NETosis assay (free DNA, PicoGreen); assay type: cell-based; conditions: peptide 2 mM; neutrophils stimulated with PMA and H2O2
Method: Free DNA as a marker for NET formation was measured by PicoGreen as previously described. Briefly, 2.0×10^6 human neutrophils in 96-well plates were stimulated with 12 nM PMA and 0.05% H2O2 in RPMI with or without the indicated peptide variants (2 mM) for 2.5 hr in a 37° C. humified incubator supplemented with 5% CO2, allowing NETosis to occur. Neutrophils in RPMI alone served as a negative control. Fifty units of […] (Fisher) were added to each well to allow for digestion of released extracellular DNA for 10 min at 37° C. The preparation was then aliquoted into an adjacent well and mixed 1:1 with prepared PICO green reagent (Fisher). The fluorescence was then quantified on a BioTek microplate reader at excitation 485 nm/emission 528 nm.

[2] = system: complement activity; experiment: Hemolytic assay of plasma after IV infusion into rats; assay type: in vivo, rat; conditions: IV in Wistar rats; early time points at the highest dose
Method: (§1) Male Wistar rats with indwelling jugular catheters were administered PA-0117, -0127, -0130, and -0133 with groups of three animals receiving 20, 200 and 400 mg/kg of the compound as a single, bolus, IV infusion. A control group of rats received an infusion of saline IV. At various time points after infusion (0.5, 2, 5, 20, 60, 120, 240, 480, 1440 minute) an aliquot of blood was drawn and plasma isolated and frozen at −70° C. pending analysis. Animals were sacrificed after the terminal blood draw and a gross necropsy performed.
(§2) PA-0117 could not be analyzed as no functional complement activity was obtained from the plasma samples. […] PA-0117 was analyzed in a C1q target acquisition assay (C1q binding assay) as described in Example 1 (FIG. 9). […] PA-0127 and -0130 levels were determined by coating the plate with the plasma samples and directly detecting the peptides by rabbit antibody raised against PA-0020 (peptide sequence […]; SEQ ID NO: 57) (FIGS. 10B and 11B). […] PA-0133 could not be detected by the available antibodies.

[3] = assay type: in vivo, rat; conditions: IV in Wistar rats, 20, 200, 400 mg/kg; 0.5-1440 minute
Method: as §1, §2
PA-0117: The hemolysis assay results were not useable (few pre-bleeds had any activity, and only a few other random samples had any complement activity). The PK assay for PA-0117 was performed by sandwich ELISA (FIG. 9). PA-0127: The results of the hemolysis assay are discussed herein (see also FIG. 10A). […] PA-0130: The results of the hemolysis assay are discussed herein (see also FIG. 11A). […] PA-0133: The results of the hemolysis assay are discussed herein (FIG. 12).

[4] = target: T1, PD-1/PD-L1 interaction (Homo sapiens, UniProt Q15116+Q9NZQ7); experiment: PD-1/PD-L1 Blockade Bioassay (Promega); assay type: cell-based; conditions: increasing peptide concentrations
T1 construct: host or cells: PD-1 effector cells; PD-L1 aAPC/CHO-K1 cells
T1 sequence (Q15116 25-288): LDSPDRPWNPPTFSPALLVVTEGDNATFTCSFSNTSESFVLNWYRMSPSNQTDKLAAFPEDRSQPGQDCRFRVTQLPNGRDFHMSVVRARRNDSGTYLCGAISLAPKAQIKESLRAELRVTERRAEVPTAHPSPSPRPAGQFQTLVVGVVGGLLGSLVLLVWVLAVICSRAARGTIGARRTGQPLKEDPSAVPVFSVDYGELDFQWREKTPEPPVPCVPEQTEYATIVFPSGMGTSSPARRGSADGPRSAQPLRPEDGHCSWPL
T1 sequence (Q9NZQ7 19-290): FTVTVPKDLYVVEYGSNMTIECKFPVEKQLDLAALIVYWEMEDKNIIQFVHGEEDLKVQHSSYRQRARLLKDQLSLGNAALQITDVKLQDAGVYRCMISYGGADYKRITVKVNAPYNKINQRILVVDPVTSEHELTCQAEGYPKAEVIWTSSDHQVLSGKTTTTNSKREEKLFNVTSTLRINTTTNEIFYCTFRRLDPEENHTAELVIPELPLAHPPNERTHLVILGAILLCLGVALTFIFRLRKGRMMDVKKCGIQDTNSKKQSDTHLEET
Method: PD-1 effector cells were incubated with PD1-L1 aAPC cells in the absence or presence of increasing concentrations of anti-PD-1 antibody (positive control) and select PIC1 peptides. Luminescence was detected in luminometer plate reader.
To assess if PIC1 peptides could block PD-1 inhibitory activity in a cell-based assay, select peptides were screened in the PD-1/PD-L1 Blockade Bioassay (Promega). The PD-1/PD-L1 Blockade Bioassay is a biologically relevant MOA-based assay that can be used to measure the potency and stability of antibodies and other biologics designed to block the PD-1/PD-L1 interaction. This bioluminescent cell-based assay is used to measure the potency and stability of molecules targeting PD-1 and consists of two genetically engineered cell lines: aAPC/CHO-K1 Cells are CHO-K1 cells with an engineered cell surface protein designed to activate cognate TCRs in an antigen-independent manner. When the two cell types are co-cultured, the PD-1/PD-L1 interaction inhibits TCR signaling and NFAT-mediated luciferase activity. Addition of an inhibitory molecule that blocks either PD-1 or PD-L1 releases the inhibitory signal and results in TCR signaling and NFAT-mediated luciferase activity.

[5] = system: purified human Pan T-cells; experiment: T-cell exhaustion protocol (Dynabeads re-stimulation); assay type: cell-based; conditions: peptides 2 mg/ml at each stimulation
Method: Purified human pan-T-cells were subject to stimulation with Dynabeads every 48 hours over the period of 8 days with cells also receiving PIC1 peptides (2 mg/ml) at each stimulation. Cells not receiving Dynabeads were run in parallel to assess background levels of Caspase 3/7 signal. At the eighth day, cells were harvested and the levels of Caspase 3/7 determined by ELISA.
Purified human pan-T-cells were subject to stimulation with Dynabeads every 48 hours over the period of 8 days with cells also receiving PIC1 peptides (2 mg/ml) at each stimulation. Cell supernatants were collected at each stimulation and levels of IL-2 and IFN-gamma assayed by ELISA.
T-cell exhaustion is a form of T-cell dysfunction that occurs in cancer. It is defined by poor effector function, reduction in cytokine release (e.g., IL-2, TNF-alpha, IFN-gamma), sustained expression of inhibitory receptors (e.g., PD-1, LAG-3, CD244, CD160) with the progressive loss of effector function due to overstimulation. Exhaustion prevents optimal control of tumor growth. Exhausted T cells are prevalent in the tumor microenvironment (TME) and can lead to T-cell apoptosis. T-cell exhaustion is reversible, and pharmaceutical inhibition of T-cell exhaustion has been considered a promising strategy by many cancer researchers. To ascertain if PIC1 peptides could reverse T-cell exhaustion and increase T cell viability and effector function, a T-cell exhaustion protocol was developed. To induce T-cell exhaustion, purified human Pan T-cells were stimulated with T-Activator CD3/CD28 Dynabeads and cells are washed and re-stimulated every 48 hours. PIC1 peptides were added to the cells after each stimulation with Dynabeads. After three to four stimulations cells were harvested for readouts which consisted of assessing T-cell apoptosis by measuring Caspase 3/7 levels and production of cytokines IL-2 and IFN-gamma which is indicative of T-cell functionality. […] To further evaluate if PIC1 peptides could restore T-cell functionality in cells that have undergone the exhaustion protocol, the inventors next assessed production of cytokines IL-2 and IFN-gamma. Supernatants from the cells after each stimulation were collected and the cytokines measured by ELISA. […] The lower level of IFN-gamma signal compared to IL-2 was consistently seen in this assay.

[6] = target: T2, CTLA-4 (Homo sapiens, UniProt P16410); experiment: CTLA-4 Blockade Bioassay (Promega); assay type: cell-based; design: host or cells: Jurkat T cells (CTLA-4 effector cells); aAPC/Raji cells; conditions: increasing concentrations; listed as RLS-0130
T2 sequence (P16410 36-223): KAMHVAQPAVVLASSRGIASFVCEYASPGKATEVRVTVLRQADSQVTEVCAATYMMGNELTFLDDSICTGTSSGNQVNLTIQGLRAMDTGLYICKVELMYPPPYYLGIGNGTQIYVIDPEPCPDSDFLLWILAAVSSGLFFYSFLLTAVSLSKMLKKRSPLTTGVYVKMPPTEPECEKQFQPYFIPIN
Method: CTLA-4 effector cells were incubated with aAPC/Raji Cells in the absence or presence of increasing concentrations of anti-CTLA-4 antibody (positive control), RLS-0127*, RLS-0130, RLS-0156, RLS-0170 and RLS-0174. Luminescence was detected in luminometer plate reader.
To assess if PIC1 peptides could block CTLA-4 inhibitory activity in a cell-based assay, select peptides were screened in the CTLA-4 Blockade Bioassay (Promega). This bioluminescent cell-based assay is used to measure the potency and stability of molecules targeting CTLA-4 and consists of two genetically engineered cell lines: CTLA-4 effector cells: Jurkat T cells expressing human CTLA-4 and a luciferase reporter driven by a native promoter which responds to TCR/CD28 activation and aAPC/Raji Cells: Raji cells expressing an engineered cell surface protein designed to activate cognate TCRs in an antigen-independent manner and endogenously expressing CTLA-4 ligands CD80 and CD86. When the two cell types are co-cultured, CTLA-4 competes with CD28 for their shared ligands, CD80 and CD86 and thus inhibits CD28 pathway activation and promoter-mediated luminescence. Addition of a molecule that blocks the interaction of CTLA-4 with its ligands CD80 and CD86 results in promoter-mediated luminescence.

[7] = ABO incompatibility hemolytic assay of complement activity (CH50-type); assay type: cell-based, human; conditions: peptide 0.8 mg/ml (~0.5 mM); read-out: decrease of ABO hemolysis compared to PA-I8Sar
Method: FIG. 1A-1B show PIC1 peptides' inhibition of complement activation in an ABO incompatibility assay. […] Inhibition of ABO incompatibility hemolysis in a CH50-type assay. Peptides are at a final concentration of 0.5 mM. Values are represented as a percent of the positive control, which consists of human O sera and AB red blood cells in GVBS^++ buffer. Data are the means of n=3 independent experiments±SEM.
For hemolytic complement assays, human red blood cells (RBCs) from type AB donors were purified, washed, and standardized to 1.0×10^9 cells/ml, as previously described. Human sera from type O donors at a 15% final concentration was combined with 0.5 mM of the peptides and the volume was brought up to 0.2 ml with GVBS^++ and 5.0×10^7 RBCs. The samples were incubated for 1 hour at 37° C. and then spun at 3,000 rpm for 5 minutes and the supernatant was collected and read at 412 nm. Values are represented as a percent of the positive control, which consists of human O sera and AB red blood cells in GVBS^++ buffer.
To assess the extent to which the peptide variants inhibit antibody-initiated complement activation, an ABO incompatibility ex vivo assay was utilized in which purified erythrocytes from a ‘type AB+’ donor are incubated with sera from a ‘type O’ subject containing anti-A and anti-B antibodies. Peptides were tested at a concentration of 0.8 mg/ml (˜0.5 mM). […] D-amino acid variants PA-0127 and PA-0133 decreased ABO hemolysis by 20% (P value=0.083) and 25% (P value=0.076), respectively. […]

[8] = as described in U.S. Pat. No. 10,005,818; cited from earlier work

Row | Compound | reduction of free DNA (marker of NETosis) [1] | inhibition of complement activity in the hemolytic assay of rat plasma [2] | peptide level in plasma over time [3] | inhibition of PD-1/PD-L1 inhibitory signaling (luminescence) [4] | Caspase 3/7 levels ([5]; eighth day) | IL-2 signal at stimulation 2 ([5]; supernatant ELISA) | inhibitory activity in CTLA-4 blockade bioassay (luminescence) [6] | decrease in ABO hemolysis compared to reference peptide [7] | water solubility without PEGylation [8]
1 | CC[C@H](C)[C@H](N)C(=O)N[C@@H](C)C(=O)N[C@@H](CC(C)C)C(=O)N[C@H](C(=O)N[C@@H](CC(C)C)C(=O)N[C@@H](CCC(=O)O)C(=O)N1CCC[C@H]1C(=O)N(C)CC(=O)N[C@@H](CS)C(=O)N[C@@H](CS)C(=O)N[C@@H](CCC(N)=O)C(=O)N[C@H](CCC(=O)O)C(=O)N[C@@H](CCCNC(=N)N)C(=O)N[C@@H](C)C(=O)N[C@@H](C)C(=O)O)[C@@H](C)CC [PA-0130, IALILEP(Sar)CCQdERAA] (HELM PEPTIDE1{I.A.L.I.L.E.P.[Sar].C.C.Q.[dE].R.A.A}$$$$V2.0) | reduction in free DNA similar to that of the PA-I8Sar control; also recorded: ability to inhibit NET formation | inhibition of complement activity | increased binding was observed at early time points with diminished signal at later time points | did not show PD-1/PD-L1 inhibitory activity | very low to undetectable levels of Caspase 3/7 | showed an IL-2 signal at stimulation 2 | showed inhibitory activity; also recorded: able to inhibit CTLA-4 mediated cell signaling |  | 
2 | CC[C@H](C)[C@H](N)C(=O)N[C@@H](C)C(=O)N[C@@H](CC(C)C)C(=O)N[C@H](C(=O)N[C@@H](CC(C)C)C(=O)N[C@@H](CCC(=O)O)C(=O)N1CCC[C@H]1C(=O)N(C)CC(=O)N[C@H](CS)C(=O)N[C@@H](CS)C(=O)N[C@@H](CCC(N)=O)C(=O)N[C@@H](CCC(=O)O)C(=O)N[C@@H](CCCNC(=N)N)C(=O)N[C@@H](C)C(=O)N[C@@H](C)C(=O)O)[C@@H](C)CC [PA-0127, IALILEP(Sar)dCCQERAA] (HELM PEPTIDE1{I.A.L.I.L.E.P.[Sar].[dC].C.Q.E.R.A.A}$$$$V2.0) | did not reduce levels of free DNA; also recorded: did not show a reduction in free DNA | inhibition of complement activity | increased binding was observed at early time points with diminished signal at later time points |  |  |  |  | 20% | 
3 | IALILEP(Sar)CCQERAA (IALILEPXCCQERAA; sarcosine at position 8; MOD_RES (8)..(8) Sarcosine) [PA-0088, reference compound] | reduced the level of free DNA |  |  |  |  |  |  |  | water soluble without PEGylation
4 | IALILEPI(Sar)CQERAA (IALILEPIXCQERAA; sarcosine at position 9; MOD_RES (9)..(9) Sarcosine) [PA-0089] |  |  |  |  |  |  |  |  | water soluble without PEGylation
